Data reported in patent publication US20240116985A1, “STAPLED PEPTIDES AND METHODS THEREOF” (priority 2020, published 2024).
Values after ≈ are worked out from the molar mass of the structure shown. Like-named read-outs stand apart in the source and are kept apart here.

Key:
[1] = biological target: T1, full-length beta-Catenin (Uniprot ID P35222) (Homo sapiens, UniProt P35222); assay: Fluorescence polarization IC50 (beta-catenin / 5FAM-TCF4 10-53 competition); format: binding
T1 construct: 10 nM full-length beta-Catenin (Uniprot ID P35222)
T1 sequence (P35222 1-781): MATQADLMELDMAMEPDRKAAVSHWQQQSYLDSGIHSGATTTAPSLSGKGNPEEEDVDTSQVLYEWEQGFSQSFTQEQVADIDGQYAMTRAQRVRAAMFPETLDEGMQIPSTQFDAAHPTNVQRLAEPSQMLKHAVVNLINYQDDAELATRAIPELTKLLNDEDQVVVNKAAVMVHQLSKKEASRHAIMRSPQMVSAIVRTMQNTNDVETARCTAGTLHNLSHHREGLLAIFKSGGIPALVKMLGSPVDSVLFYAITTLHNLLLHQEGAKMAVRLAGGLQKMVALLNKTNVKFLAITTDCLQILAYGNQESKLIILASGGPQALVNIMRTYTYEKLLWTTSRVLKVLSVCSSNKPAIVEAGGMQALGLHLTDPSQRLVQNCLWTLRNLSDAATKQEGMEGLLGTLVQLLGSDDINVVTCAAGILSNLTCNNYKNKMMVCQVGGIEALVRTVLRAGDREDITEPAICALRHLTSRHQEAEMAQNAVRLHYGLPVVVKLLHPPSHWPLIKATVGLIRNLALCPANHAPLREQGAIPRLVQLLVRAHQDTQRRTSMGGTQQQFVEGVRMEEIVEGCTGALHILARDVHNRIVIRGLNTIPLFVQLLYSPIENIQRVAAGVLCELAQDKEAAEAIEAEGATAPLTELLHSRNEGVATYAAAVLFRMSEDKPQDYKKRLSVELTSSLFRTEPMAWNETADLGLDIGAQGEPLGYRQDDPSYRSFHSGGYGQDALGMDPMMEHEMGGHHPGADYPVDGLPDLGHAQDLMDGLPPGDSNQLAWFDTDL

CHI Log D procedure = format: physicochemical; settings: for CHI Log D: pH 7.4; for chromatographic logD: pH 7.4, CHI Log D
Solubility in PBS = format: physicochemical
Procedure, shortened: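 Solubility is derived from HPLC peak areas: the ratio of the PBS supernatant peak to a 50 μM DMSO peptide peak, times 50 uM.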

[2] = biological target: T2, beta-catenin/TCF4 engagement (Homo sapiens, UniProt P35222); assay: Nano-BRET target engagement assay (B-cat-Halo & TCF4-Luc in HEK293 cells); format: cell-based; settings: for IC50: read-out: NanoBRET Abs IC50; for inhibition at 10 µM: HEK293, @ 10 uM, read-out: NanoBRET % inh @ 10 uM
T2 construct: expressed in transfected cells; host or cells: HEK293
T2 sequence (P35222 1-781): T1 sequence (P35222 1-781)

[3] = fluorescence polarization, read-out: beta-Catenin FP IC50

Structure (SMILES) | IC50 ([1]; fluorescence polarization, beta-catenin, read-out: FP EC50) [nM] | IC50 ([1]; read-out: beta-Catenin FP IC50) [nM] | CHI Log D (CHI Log D procedure) | Solubility (Solubility in PBS) [µM] | IC50 [2] [nM] | IC50 [1, 3] [nM] | chromatographic logD (CHI Log D procedure) | Solubility (Solubility in PBS; Solubility (uM)) [µM] | IC50 ([2]; absolute IC50) [nM] | IC50 ([1]; read-out: FP EC50) [nM] | inhibition at 10 µM [2] [%]
CC(=O)N1CCC[C@]12CC=CCCCC1(CCCC=CCCCCOC(=O)N3CC[C@@](C(=O)N[C@@H](Cc4ccsc4)C(=O)N[C@@H](Cc4csc5ccccc45)C(=O)N[C@@H](CCC(N)=O)C(=O)N[C@@H](C)C(N)=O)(C3)NC(=O)[C@H](CC(N)=O)NC(=O)[C@H](Cc3ccccc3)NC(=O)[C@H](C)NC(=O)[C@H](C)NC(=O)[C@H](CC(=O)O)NC(=O)[C@H](CC(=O)O)NC1=O)NC(=O)[C@H](CC(C)(C)C)NC(=O)[C@H](CC(=O)O)NC2=O (stereo partly drawn) [I-826, Ac-PL3-Asp-Npg-B5-Asp-Asp-Ala-Ala-Phe-Asn-PyrS3-3Thi-BztA-Gln-Ala-NH2] | 15 | 15 | 2.066 | 30 (≈ 60.1 µg/mL) | 22700 |  |  |  |  |  | 
CC(=O)N1CCC[C@]12CC=CCCCC1(CCCC=CCCCCCC[C@@](C)(C(=O)N[C@@H](Cc3ccccc3)C(=O)N[C@@H](Cc3csc4ccccc34)C(=O)N[C@@H](CCC(N)=O)C(N)=O)NC(=O)[C@H](CC(N)=O)NC(=O)[C@H](Cc3ccccc3)NC(=O)[C@H](C)NC(=O)[C@H](C)NC(=O)[C@H](CCC(=O)O)NC(=O)[C@H](CC(=O)O)NC1=O)NC(=O)[C@H](CC(C)(C)C)NC(=O)[C@H](CC(=O)O)NC2=O (stereo partly drawn) [I-677, Ac-PL3-Asp-Npg-B5-Asp-Glu-Ala-Ala-Phe-Asn-S8-Phe-BztA-Gln-NH2] |  |  |  |  |  | 22 | 2.45 | 49 (≈ 92.3 µg/mL) | 6700 |  | 
CC(=O)N1CCC[C@]12CC=CCCCC1(CCCC=CCCCOC(=O)N3CC[C@@](C(=O)N[C@@H](Cc4ccsc4)C(=O)N[C@@H](Cc4csc5ccccc45)C(=O)N[C@@H](CCC(N)=O)C(=O)N[C@@H](CCCCNC(=O)c4ccc5ccccc5c4)C(N)=O)(C3)NC(=O)[C@H](CC(N)=O)NC(=O)[C@H](Cc3ccccc3)NC(=O)[C@H](C)NC(=O)[C@H](C)NC(=O)[C@H](CC(=O)O)NC(=O)[C@H](CC(=O)O)NC1=O)NC(=O)[C@H](CC(C)(C)C)NC(=O)[C@H](CC(=O)O)NC2=O (stereo partly drawn) [I-915, Ac-PL3-Asp-Npg-B5-Asp-Asp-Ala-Ala-Phe-Asn-PyrS2-3Thi-BztA-Gln-[2Napc]Lys-NH2] |  | 28 |  |  | 15500 |  | 2.33 | 41 (≈ 90.2 µg/mL) |  |  | 
CC(=O)N1CCC[C@]12CC=CCCCC1(CCCC=CCCCCCC[C@@](C)(C(=O)N[C@@H](Cc3ccccc3)C(=O)N[C@@H](Cc3csc4ccccc34)C(=O)N[C@@H](CCC(N)=O)C(N)=O)NC(=O)[C@H](CC(N)=O)NC(=O)[C@H](Cc3ccccc3)NC(=O)[C@H](C)NC(=O)[C@H](C)NC(=O)[C@H](CC(=O)O)NC(=O)[C@H](CC(=O)O)NC1=O)NC(=O)[C@H](CCC(C)C)NC(=O)[C@H](CC(=O)O)NC2=O (stereo partly drawn) [I-548, Ac-PL3-Asp-hLeu-B5-Asp-Asp-Ala-Ala-Phe-Asn-S8-Phe-BztA-Gln-NH2] |  |  | 2.528 | 50 (≈ 93.5 µg/mL) |  | 17 |  |  | 15600 | 17 | 
CC(=O)N1CCC[C@]12CC=CCCCC1(CCCC=CCCCOC(=O)N3CC[C@@](C(=O)N[C@@H](Cc4ccsc4)C(=O)N[C@@H](Cc4csc5ccccc45)C(N)=O)(C3)NC(=O)[C@H](CC(N)=O)NC(=O)[C@H](Cc3ccccc3)NC(=O)[C@H](C)NC(=O)[C@H](C)NC(=O)[C@H](CC(=O)O)NC(=O)[C@H](CC(=O)O)NC1=O)NC(=O)[C@H](CC(C)(C)C)NC(=O)[C@H](CC(=O)O)NC2=O (stereo partly drawn) [I-785, Ac-PL3-Asp-Npg-B5-Asp-Asp-Ala-Ala-Phe-Asn-PyrS2-3Thi-BztA-NH2] |  | 6 |  |  | 21600 |  | 2.28 | 42 (≈ 75.2 µg/mL) |  |  | 31
COCCOCCOCCOCCOCCOCCC(=O)NCCCC[C@@H]1NC(=O)[C@H](C)NC(=O)[C@H](CC(=O)O)NC(=O)[C@H](CC(=O)O)NC(=O)C2(CCCC=CCCCOC(=O)N3CC[C@@](C(=O)N[C@@H](Cc4ccsc4)C(=O)N[C@@H](Cc4csc5ccccc45)C(=O)N[C@@H](CCC(N)=O)C(N)=O)(C3)NC(=O)[C@H](CC(N)=O)NC(=O)[C@H](Cc3ccccc3)NC1=O)CCCC=CC[C@]1(CCCN1C(C)=O)C(=O)N[C@@H](CC(=O)O)C(=O)N[C@@H](CC(C)(C)C)C(=O)N2 (stereo partly drawn) [I-895, Ac-PL3-Asp-Npg-B5-Asp-Asp-Ala-[mPEG6]Lys-Phe-Asn-PyrS2-3Thi-BztA-Gln-NH2] |  | 14 |  |  | > 20000 |  | 1.45 | 31 (≈ 70.7 µg/mL) |  |  | 
CC[C@H](C)[C@@H]1NC(=O)[C@H](CC(=O)O)NC(=O)[C@]2(CC=CCCCC3(CCCC=CCCCCCC[C@@](C)(C(=O)N[C@@H](Cc4ccccc4)C(=O)N[C@@H](Cc4csc5ccccc45)C(=O)N[C@@H](CCC(N)=O)C(N)=O)NC(=O)[C@H](CCC(N)=O)NC(=O)[C@H](Cc4cccs4)NC(=O)[C@H](C)NC(=O)[C@H](C)NC(=O)[C@H](CCC(=O)O)NC(=O)[C@H](CC(=O)O)NC3=O)NC1=O)CCCN2C(C)=O (stereo partly drawn) [I-485, Ac-PL3-Asp-Ile-B5-Asp-Glu-Ala-Ala-2Thi-Gln-S8-Phe-BztA-Gln-NH2] |  |  |  | 50 (≈ 94.5 µg/mL) |  | 34 | 2.3 |  | 11300 |  | 
CC(=O)N1CCC[C@]12CC=CCCCC1(CCCC=CCCCOC(=O)N3CC[C@@](C(=O)N[C@@H](Cc4ccsc4)C(=O)N[C@@H](Cc4csc5ccccc45)C(=O)N[C@@H](Cc4c[nH]cn4)C(N)=O)(C3)NC(=O)[C@H](CC(N)=O)NC(=O)[C@H](Cc3ccccc3)NC(=O)[C@H](C)NC(=O)[C@H](C)NC(=O)[C@H](CC(=O)O)NC(=O)[C@H](CC(=O)O)NC1=O)NC(=O)[C@H](CC(C)C)NC(=O)[C@H](CC(=O)O)NC2=O (stereo partly drawn) [I-696, Ac-PL3-Asp-Leu-B5-Asp-Asp-Ala-Ala-Phe-Asn-PyrS2-3Thi-BztA-His-NH2] |  |  |  |  |  | 5 | 2 | 40 (≈ 76.5 µg/mL) |  |  | 17
CC(=O)N1CCC[C@]12CC=CCCCC1(CCCC=CCCCOC(=O)N3CC[C@@](C(=O)N[C@@H](Cc4ccsc4)C(=O)N[C@@H](Cc4csc5ccccc45)C(=O)N[C@@H](CC(N)=O)C(=O)N[C@@H](C)C(N)=O)(C3)NC(=O)[C@H](CC(N)=O)NC(=O)[C@H](Cc3ccccc3)NC(=O)[C@H](C)NC(=O)[C@H](C)NC(=O)[C@H](CC(=O)O)NC(=O)[C@H](CC(=O)O)NC1=O)NC(=O)[C@H](CC(C)(C)C)NC(=O)[C@H](CC(=O)O)NC2=O (stereo partly drawn) [I-821, Ac-PL3-Asp-Npg-B5-Asp-Asp-Ala-Ala-Phe-Asn-PyrS2-3Thi-BztA-Asn-Ala-NH2] |  | 5 |  |  | 9100 |  | 2.07 | 36 (≈ 71.1 µg/mL) |  |  | 
CC(=O)N1CCC[C@]12CC=CCCCC1(CCCC=CCCCCCC[C@@](C)(C(=O)N[C@@H](Cc3ccccc3)C(=O)N[C@@H](Cc3csc4ccccc34)C(=O)N[C@@H](CCC(N)=O)C(N)=O)NC(=O)[C@H](CCC(N)=O)NC(=O)[C@H](Cc3ccccc3)NC(=O)[C@H](C)NC(=O)[C@H](C)NC(=O)[C@H](CCC(=O)O)NC(=O)[C@H](CC(=O)O)NC1=O)NC(=O)[C@H](CC(C)(C)C)NC(=O)[C@H](CC(=O)O)NC2=O (stereo partly drawn) [I-544, Ac-PL3-Asp-Npg-B5-Asp-Glu-Ala-Ala-Phe-Gln-S8-Phe-BztA-Gln-NH2] |  |  |  |  |  | 24 | 2.48 | 48 (≈ 91.1 µg/mL) | 4600 |  | 
CC(=O)N1CCC[C@]12CC=CCCCC1(CCCC=CCCCOC(=O)N3CC[C@@](C(=O)N[C@@H](Cc4cccs4)C(=O)N[C@@H](Cc4csc5ccccc45)C(=O)N[C@@H](CCC(N)=O)C(N)=O)(C3)NC(=O)[C@H](CC(N)=O)NC(=O)[C@H](Cc3ccccc3)NC(=O)[C@H](C)NC(=O)[C@H](C)NC(=O)[C@H](CC(=O)O)NC(=O)[C@H](CC(=O)O)NC1=O)NC(=O)[C@H](CC(C)(C)C)NC(=O)[C@H](CC(=O)O)NC2=O (stereo partly drawn) [I-778, Ac-PL3-Asp-Npg-B5-Asp-Asp-Ala-Ala-Phe-Asn-PyrS2-2Thi-BztA-Gln-NH2] |  | 8 |  |  | 11200 |  | 2.04 | 43 (≈ 82.5 µg/mL) |  |  | 
CC(=O)N1CCC[C@]12CC=CCCCC1(CCCC=CCCCOC(=O)N3CC[C@@](C(=O)N[C@@H](Cc4ccccc4Cl)C(=O)N[C@@H](Cc4csc5ccccc45)C(=O)N[C@@H](CCC(N)=O)C(=O)NCCCCCCN)(C3)NC(=O)[C@H](Cc3ccccc3)NC(=O)[C@H](Cc3ccccc3)NC(=O)[C@H](C)NC(=O)[C@H](C)NC(=O)[C@H](CN(CC(=O)O)CC(F)(F)F)NC(=O)[C@H](CC(=O)O)NC1=O)NC(=O)[C@H](CC(C)(C)C)NC(=O)[C@H](CC(=O)O)NC2=O (stereo partly drawn) [I-1012, Ac-PL3-Asp-Npg-B5-Asp-TfeGA-Ala-Ala-Phe-Phe-PyrS2-2C1F-BztA-Gln-6AmHex] |  | 60 |  | 10 (≈ 21.9 µg/mL) | 37900 |  | 2.61 |  |  |  | 
